Legend:
BALB/c mice [1] = assay: Survival in mouse model of toxicity (CPA, then muCAR-T or mock cells); assay type: in vivo; details: 250 mg/kg CPA alone i.p.; tumor-free BALB/c mice
Description: (§1) A single dose of either 100 mg/kg or 250 mg/kg cyclophosphamide (CPA) was injected into naïve BALB/c mice (tumor-free) by intraperitoneal (i.p.) injection. Twenty-four hours later, about 5×10^6 mouse CAR-expressing T cells or mock (control) cells, generated as described in Example 1, were transferred into mice by intravenous injection into the lateral tail vein. As a control, mice were injected with CPA alone or were left untreated. Table E1 sets forth the treatment groups.

BALB/c mice [2] = assay type: in vivo, mouse
Description: as §1
Blood samples were collected from treated mice at days 3, 10, 17, 31 and, in some mice at day 43, following cell infusion. The pharmacokinetics (PK) in the blood of administered cells was assessed by detection of the surrogate marker Thy 1.1. The number of circulating B cells, T cells and CD11b+ cells in the blood at the time points following treatment also was assessed.

BALB/c mice [3] = assay type: in vivo, mouse; remark: listed apart in the source
Description: Various parameters relating to toxicity were assessed in BALB/c mice produced to develop B cell aplasia following administration of an immunotherapy involving anti-CD19 CAR T cells substantially as described in Example 2.
At 24, 48, and 72 hours after infusion with cell compositions, the three healthiest mice from each group were anesthetized, transcardially perfused with phosphate buffered saline (PBS) to flush brain blood vessels, and sacrificed. Blood and tissue samples (spleen, kidney, liver and brain) were collected for analysis of immune cell populations, gene expression, and blood chemistry. The blood and tissue samples were either processed for flow cytometry or were snap-frozen for RNA sequencing (RNA-Seq) analysis. For flow cytometry, tissue samples were digested and cell suspensions were layered over a density gradient to enrich immune cell populations.

BALB/c mice [4] = assay: Serum chemistry profiles; details: various time points following cell treatment
Description: The serum was stored at −20° C. prior to analysis for complete serum chemistry panels, including for levels of serum glucose, albumin, albumin to globulin (A/G) ratio, globulin, total protein, calcium, phosphorus, ALT, AST, and BUN enzymes.

A20 cells = assay: Tumor burden by histology; assay type: in vivo, mouse; details: mice having received A20 cells i.v.
Description: To examine the effects of tumor burden on the toxicity following B cell aplasia in mice, BALB/c mice were injected with CD19-expressing A20 cells prior to treatment with CPA and mouse anti-CD19 CAR−T cells. A20 cells are a cell line of B lymphocytes derived from a spontaneous reticulum cell neoplasm in a BALB/cAnN mouse. As the cell line was originally derived from cells of an individual of a BALB/c mouse substrain, the cells are syngenic to the BALB/c mice and can be administered into an immunocompetent BALB/c mouse without triggering an immune response.
BALB/c mice were injected intravenously with A20 cells. […] Table E3 sets forth the treatment groups.
Tumor burden also was assessed by histology in treated mice.

With `O=P1(N(CCCl)CCCl)NCCCO1` (centres unmarked) [CPA, cyclophosphamide] the Survival (BALB/c mice [1]) was 100%, the “levels of circulating B cells” value (BALB/c mice [2]; 250 mg/kg CPA than 100 mg/kg CPA) was “reduced levels of circulating B cells to a greater degree” and the “circulating B cells, T cells, and CD11b+ cells” value (BALB/c mice [2]; 100 or 250 mg/kg CPA i.p., blood) was “depleted”. The “circulating CD45+ live cells, CD11b+ cells, endogenous T cells and endogenous B cells in blood” value (BALB/c mice [3]; 250 mg/kg CPA pre-conditioning, continued to drop at least for 72 hours) was “depletion”, the “immune cells in brain tissue, including endogenous T cells and endogenous B cells” value (BALB/c mice [3]; CPA pre-conditioning) was “depleted” and the “immune cells (endogenous T cells, B cells, CD45+ cells, CD11b+ cells) in spleen, kidney and liver” value (BALB/c mice [3]; treatment with CPA) was “depletion”. For the same molecule, the “serum Albumin to Globulin ratio (A/G ratio)” value (BALB/c mice [4]) was “significantly reduced” and the “A20 tumor masses in liver and spleen tissues” value (A20 cells) was “observed in some”.

— patent US20220225597A1, “MOUSE MODEL FOR ASSESSING TOXICITIES ASSOCIATED WITH IMMUNOTHERAPIES” (Juno Therapeutics, Inc., priority 2017, published 2022)
